The subject of experiment [1] is Pseudomonas aeruginosa. Put plainly: Antimicrobial activity against Pseudomonas aeruginosa assessed as inhibition of planktonic growth at 100 uM at 37 degC after 24 hrs. It counts as functional, organism-based.
The test system of experiment [2] is Salmonella typhimurium. As to the kind of experiment: Antimicrobial activity against Salmonella Typhimurium ATCC 14028 assessed as inhibition of planktonic growth at 40 uM at 25 degC after 24 hrs. It counts as functional, organism-based. The following applies: Salmonella enterica subsp. enterica serovar Typhimurium.
Experiment [3] concerns Salmonella typhimurium. As to the kind of experiment: Antimicrobial activity against Salmonella Typhimurium ATCC 14028 assessed as inhibition of planktonic growth at 4 uM at 25 degC after 24 hrs. It counts as functional, organism-based. The note with it: Salmonella enterica subsp. enterica serovar Typhimurium.
Experiment [4] concerns Pseudomonas aeruginosa. As to the kind of experiment: Antimicrobial activity against Pseudomonas aeruginosa assessed as inhibition of planktonic growth at 10 uM at 25 degC after 24 hrs. It counts as functional, organism-based.
In experiment [5] the test system is Salmonella typhimurium. As to the kind of experiment: Antibiofilm activity in Salmonella Typhimurium ATCC 14028 assessed as inhibition of biofilm formation at 37 degC after 24 hrs. The note with it: Salmonella enterica, ATCC 14028, 24 h. The format is functional, organism-based, Salmonella enterica subsp. enterica serovar Typhimurium.
The subject of experiment [6] is Pseudomonas aeruginosa. As to the kind of experiment: Antimicrobial activity against Pseudomonas aeruginosa assessed as inhibition of planktonic growth at 40 uM at 25 degC after 24 hrs. It counts as functional, organism-based.
For experiment [7], the system named is Salmonella typhimurium. Put plainly: Antibiofilm activity in Salmonella Typhimurium ATCC 14028 assessed as inhibition of biofilm formation at 25 degC after 24 hrs. It counts as functional, organism-based, Salmonella enterica subsp. enterica serovar Typhimurium. The following applies: Salmonella enterica, ATCC 14028, 24 h.
Experiment [8] relates to Pseudomonas aeruginosa. Put plainly: Antimicrobial activity against Pseudomonas aeruginosa assessed as inhibition of planktonic growth at 20 uM at 37 degC after 24 hrs. It counts as functional, organism-based.
The subject of experiment [9] is Pseudomonas aeruginosa. Put plainly: Antibiofilm activity in Pseudomonas aeruginosa assessed as inhibition of biofilm formation at 25 degC after 24 hrs. The format is functional, organism-based.
For experiment [10], the system named is Pseudomonas aeruginosa. As to the kind of experiment: Antibiofilm activity in Pseudomonas aeruginosa assessed as inhibition of biofilm formation at 37 degC after 24 hrs. The format is functional, organism-based.
The test system of experiment [11] is Salmonella typhimurium. Put plainly: Antimicrobial activity against Salmonella Typhimurium ATCC 14028 assessed as inhibition of planktonic growth at 200 uM at 25 degC after 24 hrs. It counts as functional, organism-based. The note with it: Salmonella enterica subsp. enterica serovar Typhimurium.
In experiment [12] the test system is Pseudomonas aeruginosa. Put plainly: Antimicrobial activity against Pseudomonas aeruginosa assessed as inhibition of planktonic growth at 40 uM at 37 degC after 24 hrs. The format is functional, organism-based.
Experiment [13] has as its system Pseudomonas aeruginosa. As to the kind of experiment: Antimicrobial activity against Pseudomonas aeruginosa assessed as inhibition of planktonic growth at 100 uM at 25 degC after 24 hrs. The format is functional, organism-based.
Experiment [14] concerns Salmonella typhimurium. Put plainly: Antimicrobial activity against Salmonella Typhimurium ATCC 14028 assessed as inhibition of planktonic growth at 400 uM at 25 degC after 24 hrs. It counts as functional, organism-based. The following applies: Salmonella enterica subsp. enterica serovar Typhimurium.
Experiment [15] deals with Salmonella typhimurium. As to the kind of experiment: Antimicrobial activity against Salmonella Typhimurium ATCC 14028 assessed as inhibition of planktonic growth at 250 uM at 37 degC after 24 hrs. The format is functional, organism-based. The following applies: Salmonella enterica subsp. enterica serovar Typhimurium.
Experiment [16] concerns Salmonella typhimurium. Put plainly: Antimicrobial activity against Salmonella Typhimurium ATCC 14028 assessed as inhibition of planktonic growth at 100 uM at 37 degC after 24 hrs. The format is functional, organism-based. The following applies: Salmonella enterica subsp. enterica serovar Typhimurium.
Experiment [17] has as its system Salmonella typhimurium. Put plainly: Antimicrobial activity against Salmonella Typhimurium ATCC 14028 assessed as inhibition of planktonic growth at 400 uM at 37 degC after 24 hrs. It counts as functional, organism-based. The note with it: Salmonella enterica subsp. enterica serovar Typhimurium.
Experiment [18] has as its system Salmonella typhimurium. As to the kind of experiment: Antimicrobial activity against Salmonella Typhimurium ATCC 14028 assessed as inhibition of planktonic growth at 150 uM at 37 degC after 24 hrs. The format is functional, organism-based. The following applies: Salmonella enterica subsp. enterica serovar Typhimurium.
Experiment [19] deals with Salmonella typhimurium. As to the kind of experiment: Antimicrobial activity against Salmonella Typhimurium ATCC 14028 assessed as inhibition of planktonic growth at 150 uM at 25 degC after 24 hrs. The following applies: Salmonella enterica subsp. enterica serovar Typhimurium. It counts as functional, organism-based.
The test system of experiment [20] is Pseudomonas aeruginosa. As to the kind of experiment: Antimicrobial activity against Pseudomonas aeruginosa assessed as inhibition of planktonic growth at 5 uM at 25 degC after 24 hrs. It counts as functional, organism-based.
Experiment [21] concerns Salmonella typhimurium. Put plainly: Antimicrobial activity against Salmonella Typhimurium ATCC 14028 assessed as inhibition of planktonic growth at 50 uM at 37 degC after 24 hrs. The format is functional, organism-based. The following applies: Salmonella enterica subsp. enterica serovar Typhimurium.
The test system of experiment [22] is Salmonella typhimurium. Put plainly: Antimicrobial activity against Salmonella Typhimurium ATCC 14028 assessed as inhibition of planktonic growth at 25 uM at 37 degC after 24 hrs. It counts as functional, organism-based. The following applies: Salmonella enterica subsp. enterica serovar Typhimurium.
Experiment [23] has as its system Salmonella typhimurium. Put plainly: Antimicrobial activity against Salmonella Typhimurium ATCC 14028 assessed as inhibition of planktonic growth at 20 uM at 25 degC after 24 hrs. It counts as functional, organism-based. The following applies: Salmonella enterica subsp. enterica serovar Typhimurium.
For experiment [24], the system named is Pseudomonas aeruginosa. As to the kind of experiment: Antimicrobial activity against Pseudomonas aeruginosa assessed as inhibition of planktonic growth at 400 uM at 37 degC after 24 hrs. It counts as functional, organism-based.
In experiment [25] the test system is Pseudomonas aeruginosa. Put plainly: Antimicrobial activity against Pseudomonas aeruginosa assessed as inhibition of planktonic growth at 800 uM at 37 degC after 24 hrs. It counts as functional, organism-based.
Experiment [26] deals with Salmonella typhimurium. Put plainly: Antimicrobial activity against Salmonella Typhimurium ATCC 14028 assessed as inhibition of planktonic growth at 10 uM at 25 degC after 24 hrs. It counts as functional, organism-based. The note with it: Salmonella enterica subsp. enterica serovar Typhimurium.
In experiment [27] the test system is Pseudomonas aeruginosa. As to the kind of experiment: Antimicrobial activity against Pseudomonas aeruginosa assessed as inhibition of planktonic growth at 50 uM at 25 degC after 24 hrs. It counts as functional, organism-based.
Experiment [28] has as its system Salmonella typhimurium. As to the kind of experiment: Antimicrobial activity against Salmonella Typhimurium ATCC 14028 assessed as inhibition of planktonic growth at 25 uM at 25 degC after 24 hrs. It counts as functional, organism-based. The following applies: Salmonella enterica subsp. enterica serovar Typhimurium.

Molecules are shown by their SMILES. The source made the active and inactive calls. The calls are words filed in the database; no cut-off is given here.

Broadly, the IC50 is the concentration at which inhibition is half-maximal. With `Nc1ncc(-c2ccc(F)cc2)[nH]1`, the inhibition result in the experiment with Pseudomonas aeruginosa [1], in the experiment on Salmonella typhimurium [3], in the experiment with Pseudomonas aeruginosa [4], with Pseudomonas aeruginosa [6], in the experiment on Pseudomonas aeruginosa [8] and with Pseudomonas aeruginosa [12] was “inactive” throughout. Besides, the inhibition entry with Salmonella typhimurium [2] and in the experiment on Salmonella typhimurium [11] was “Active” each time. Further, the IC50 in the experiment on Salmonella typhimurium [5] is 238 µM; with Salmonella typhimurium [7], 84.4 µM; in the experiment with Pseudomonas aeruginosa [9], 15 µM; in the experiment with Pseudomonas aeruginosa [10], 47.6 µM.

On to `Nc1ncc(-c2ccccc2)[nH]1`, for which the inhibition result with Pseudomonas aeruginosa [1], in the experiment on Salmonella typhimurium [2], in the experiment with Pseudomonas aeruginosa [13], in the experiment with Salmonella typhimurium [3], in the experiment with Salmonella typhimurium [15] and with Salmonella typhimurium [16] was “inactive” throughout. In addition, the inhibition entry in the experiment with Salmonella typhimurium [17], with Pseudomonas aeruginosa [8], with Pseudomonas aeruginosa [12], with Salmonella typhimurium [18] and in the experiment with Salmonella typhimurium [19] was “inactive” in each case. The inhibition entry with Salmonella typhimurium [14] is “Active”. The IC50 in the experiment on Salmonella typhimurium [5] turned out to be 146 µM; in the experiment on Salmonella typhimurium [7], 130 µM; in the experiment on Pseudomonas aeruginosa [9], 72.6 µM; in the experiment with Pseudomonas aeruginosa [10], 22.7 µM.

With `Nc1ncc(-c2ccc(Br)cc2)[nH]1`, the inhibition entry with Pseudomonas aeruginosa [20], in the experiment on Salmonella typhimurium [21], with Salmonella typhimurium [2], in the experiment on Salmonella typhimurium [3], in the experiment on Pseudomonas aeruginosa [4] and with Salmonella typhimurium [16] was “inactive” in each case. Moreover, the inhibition entry in the experiment with Salmonella typhimurium [22], in the experiment with Pseudomonas aeruginosa [8], in the experiment on Pseudomonas aeruginosa [12] and in the experiment with Salmonella typhimurium [18] was “inactive” each time. Further, the inhibition result in the experiment with Pseudomonas aeruginosa [1], in the experiment on Salmonella typhimurium [14] and with Pseudomonas aeruginosa [6] was “Active” each time. The IC50 in the experiment on Salmonella typhimurium [5] came to 54.3 µM; with Salmonella typhimurium [7] it was 47.9 µM; in the experiment with Pseudomonas aeruginosa [9], 3.2 µM; with Pseudomonas aeruginosa [10], 51.3 µM.

On to `Nc1nc(-c2ccc(-c3ccccc3)cc2)c[nH]1`, for which the inhibition entry with Salmonella typhimurium [2], with Salmonella typhimurium [23], in the experiment with Pseudomonas aeruginosa [24], in the experiment on Pseudomonas aeruginosa [25] and in the experiment on Salmonella typhimurium [17] was “Active” in each case. For the same molecule, the inhibition result in the experiment with Pseudomonas aeruginosa [4], in the experiment on Pseudomonas aeruginosa [6] and in the experiment on Salmonella typhimurium [26] was “inactive” throughout. Besides, the IC50 with Salmonella typhimurium [5] was determined as 349 µM; with Salmonella typhimurium [7] it was 17.3 µM; with Pseudomonas aeruginosa [9], 8.6 µM; in the experiment with Pseudomonas aeruginosa [10], 365 µM.

Take `Nc1ncc(-c2ccc(Cl)cc2)[nH]1`: the inhibition entry in the experiment with Pseudomonas aeruginosa [20], with Salmonella typhimurium [2], in the experiment on Salmonella typhimurium [3] and in the experiment on Pseudomonas aeruginosa [8] was “inactive” each time. In the experiment on Salmonella typhimurium [14], the inhibition entry is “Active”. In addition, the IC50 in the experiment with Salmonella typhimurium [5] was determined as 30.1 µM; with Salmonella typhimurium [7], 16 µM; in the experiment with Pseudomonas aeruginosa [9] it was 3.5 µM; in the experiment with Pseudomonas aeruginosa [10], 29.3 µM.

For the molecule `Nc1ncc(-c2ccc([N+](=O)[O-])cc2)[nH]1`, the inhibition entry in the experiment on Pseudomonas aeruginosa [1], with Pseudomonas aeruginosa [27], with Salmonella typhimurium [28], with Pseudomonas aeruginosa [8], in the experiment with Pseudomonas aeruginosa [12] and in the experiment on Salmonella typhimurium [26] was “inactive” throughout. Also, the inhibition entry in the experiment with Salmonella typhimurium [2], with Pseudomonas aeruginosa [13], with Salmonella typhimurium [14] and with Salmonella typhimurium [17] was “Active” in each case. Also, the IC50 in the experiment on Salmonella typhimurium [5] worked out at 396 µM; in the experiment with Salmonella typhimurium [7], 17.6 µM; in the experiment on Pseudomonas aeruginosa [9], 34.5 µM; in the experiment on Pseudomonas aeruginosa [10] it was 94 µM.

For the origin of these results see ChEMBL document CHEMBL1649413, “Structure-activity relationship of 4(5)-aryl-2-amino-1H-imidazoles, N1-substituted 2-aminoimidazoles and imidazo[1,2-a]pyrimidinium salts as inhibitors of biofilm formation by Salmonella typhimurium and Pseudomonas aeruginosa” (J Med Chem, 2011).
